Assay results reported in US20050282743A1, “Molecular interactions in cells” (Arbor Vita Corporation, priority 2001, published 2005).
Ends that are not written are not given here. Peptide text beside a SMILES is read from it. * marks the point of attachment. Biotin = O=C1N[C@H]2[C@H](CS[C@H]2CCCCC(=O)*)N1

Key:
Type in all cases: binding
[1] = target: T1, PDZ-domain polypeptide (GST/PDZ fusion protein) (Homo sapiens, UniProt Q9HD26); assay: Apparent affinity (Kd) by titration of PL peptide in the G assay; conditions: Peptide Optimal Conc (Kd by titration of the PL peptide), PDZ PIST, PDZ Domain 1
T1 construct: made in house; host or cells: E. coli (DH5alpha, BL21 or JM109)
Method in brief: (§1)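 A fixed concentration of GST/PDZ fusion protein, 5 ug/ml by default, was mixed in solution with increasing labeled PL peptide (e.g. 0.1 uM-1 mM). Reaction times ranged from 10 minutes to 2 days at 4-37° C. Complexes were separated from free peptide and detected via the label as in the G assay, apparent affinity coming from the saturating concentration.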

[2] = target: T2, PDZ protein (GST-PDZ fusion) (Homo sapiens, UniProt Q76G19); assay: G' assay (10 uM PL peptide), results of TABLE 7 and TABLE 12; conditions: PDZ LU1, PDZ Domain 1
T2 construct: made in house; host or cells: E. coli (DH5alpha, BL21 or JM109)
T2 sequence (Q76G19 1-769): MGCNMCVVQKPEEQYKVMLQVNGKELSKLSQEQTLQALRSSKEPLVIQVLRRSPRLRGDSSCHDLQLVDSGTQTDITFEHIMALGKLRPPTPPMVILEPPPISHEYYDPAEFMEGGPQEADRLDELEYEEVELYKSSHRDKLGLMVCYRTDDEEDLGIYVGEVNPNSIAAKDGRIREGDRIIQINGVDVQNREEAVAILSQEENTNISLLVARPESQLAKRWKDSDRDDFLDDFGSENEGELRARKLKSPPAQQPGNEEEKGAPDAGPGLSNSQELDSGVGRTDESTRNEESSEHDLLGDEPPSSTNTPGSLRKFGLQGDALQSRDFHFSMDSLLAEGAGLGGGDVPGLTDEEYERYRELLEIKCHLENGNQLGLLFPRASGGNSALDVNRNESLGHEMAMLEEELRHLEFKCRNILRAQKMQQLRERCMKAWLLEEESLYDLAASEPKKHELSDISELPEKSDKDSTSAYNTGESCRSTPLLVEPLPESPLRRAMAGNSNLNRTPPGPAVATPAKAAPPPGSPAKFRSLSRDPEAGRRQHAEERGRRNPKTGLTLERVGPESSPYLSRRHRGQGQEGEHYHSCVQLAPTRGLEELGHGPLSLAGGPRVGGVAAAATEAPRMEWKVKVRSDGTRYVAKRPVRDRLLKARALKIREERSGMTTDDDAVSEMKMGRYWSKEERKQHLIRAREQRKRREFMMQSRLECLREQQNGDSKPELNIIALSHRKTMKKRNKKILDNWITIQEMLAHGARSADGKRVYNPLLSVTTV
Method in brief: (§2)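 Binding classes derive from A450 nm of bound biotin-tagged PL peptide. A score of 5 needs A450 above 4 in more than two repeats.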

[3] = target: T3, PDZ protein (GST-PDZ fusion) (Homo sapiens, UniProt Q8IVF5); assay: as above; conditions: PDZ TIAM-2, PDZ Domain 1
T3 construct: made in house; host or cells: E. coli (DH5alpha, BL21 or JM109)
Method in brief: as §2

[4] = target: T4, PDZ protein (GST-PDZ fusion) (Homo sapiens, UniProt Q8TDM6); assay: as above; conditions: PDZ DLG5, PDZ Domain 2
T4 construct: made in house; host or cells: E. coli (DH5alpha, BL21 or JM109)
Method in brief: as §2

[5] = target: T5, PDZ-domain polypeptide (GST/PDZ fusion protein) (Homo sapiens, UniProt Q07157); assay: Apparent affinity (Kd) by titration of PL peptide in the G assay; conditions: Peptide Optimal Conc (Kd by titration of the PL peptide), PDZ ZO-1, PDZ Domain 2
T5 construct: made in house; host or cells: E. coli (DH5alpha, BL21 or JM109)
Method in brief: as §1

[6] = target: T6, PDZ-domain polypeptide (GST/PDZ fusion protein) (Homo sapiens, UniProt Q8NI35); assay: as above; conditions: Peptide Optimal Conc (Kd by titration of the PL peptide), PDZ INADL, PDZ Domain 3
T6 construct: made in house; host or cells: E. coli (DH5alpha, BL21 or JM109)
Method in brief: as §1

T5 sequence (Q07157 whole entry, the tested form may be a part): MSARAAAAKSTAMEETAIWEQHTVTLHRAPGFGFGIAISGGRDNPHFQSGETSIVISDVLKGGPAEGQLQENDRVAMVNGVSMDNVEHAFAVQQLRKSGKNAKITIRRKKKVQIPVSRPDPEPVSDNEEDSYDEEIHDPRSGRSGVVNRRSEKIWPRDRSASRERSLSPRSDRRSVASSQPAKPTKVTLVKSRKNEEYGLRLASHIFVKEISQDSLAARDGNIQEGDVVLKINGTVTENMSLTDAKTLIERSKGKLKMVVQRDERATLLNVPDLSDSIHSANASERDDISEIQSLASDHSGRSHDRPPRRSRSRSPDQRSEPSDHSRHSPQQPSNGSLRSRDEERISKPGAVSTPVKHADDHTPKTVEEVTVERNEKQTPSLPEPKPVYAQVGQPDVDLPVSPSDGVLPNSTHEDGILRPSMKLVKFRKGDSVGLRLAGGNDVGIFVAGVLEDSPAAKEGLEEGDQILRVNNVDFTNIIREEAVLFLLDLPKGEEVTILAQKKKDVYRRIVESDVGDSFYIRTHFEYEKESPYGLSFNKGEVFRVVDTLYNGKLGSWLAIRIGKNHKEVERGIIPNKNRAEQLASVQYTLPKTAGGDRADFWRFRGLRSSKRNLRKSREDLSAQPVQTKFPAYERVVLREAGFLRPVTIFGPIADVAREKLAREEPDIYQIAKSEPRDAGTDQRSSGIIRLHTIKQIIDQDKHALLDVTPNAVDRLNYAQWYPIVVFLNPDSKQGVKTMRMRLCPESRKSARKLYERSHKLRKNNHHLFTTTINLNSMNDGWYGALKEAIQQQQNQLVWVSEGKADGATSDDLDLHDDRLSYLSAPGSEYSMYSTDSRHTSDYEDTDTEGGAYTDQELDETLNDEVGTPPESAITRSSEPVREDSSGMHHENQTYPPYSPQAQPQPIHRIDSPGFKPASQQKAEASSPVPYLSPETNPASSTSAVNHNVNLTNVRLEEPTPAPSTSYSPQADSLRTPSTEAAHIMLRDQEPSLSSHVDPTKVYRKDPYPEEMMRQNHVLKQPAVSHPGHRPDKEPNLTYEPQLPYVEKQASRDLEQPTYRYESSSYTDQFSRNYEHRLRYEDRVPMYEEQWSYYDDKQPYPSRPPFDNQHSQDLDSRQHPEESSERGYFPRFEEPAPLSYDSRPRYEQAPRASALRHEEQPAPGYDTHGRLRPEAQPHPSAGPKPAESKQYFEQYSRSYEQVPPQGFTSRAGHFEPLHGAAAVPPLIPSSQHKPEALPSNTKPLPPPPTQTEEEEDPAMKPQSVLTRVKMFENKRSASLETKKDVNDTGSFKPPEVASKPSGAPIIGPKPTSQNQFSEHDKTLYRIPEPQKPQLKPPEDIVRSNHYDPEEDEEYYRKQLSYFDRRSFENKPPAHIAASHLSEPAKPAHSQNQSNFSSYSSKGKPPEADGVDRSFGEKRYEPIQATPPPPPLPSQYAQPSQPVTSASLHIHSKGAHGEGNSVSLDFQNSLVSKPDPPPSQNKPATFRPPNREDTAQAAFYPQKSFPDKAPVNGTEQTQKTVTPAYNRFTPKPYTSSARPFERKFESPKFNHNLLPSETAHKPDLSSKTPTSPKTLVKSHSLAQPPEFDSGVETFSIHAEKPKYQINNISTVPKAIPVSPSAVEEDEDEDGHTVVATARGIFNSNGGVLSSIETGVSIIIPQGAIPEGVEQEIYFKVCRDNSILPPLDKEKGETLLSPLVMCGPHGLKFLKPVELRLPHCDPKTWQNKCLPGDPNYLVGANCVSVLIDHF
T3 sequence (Q8IVF5 whole entry, the tested form may be a part): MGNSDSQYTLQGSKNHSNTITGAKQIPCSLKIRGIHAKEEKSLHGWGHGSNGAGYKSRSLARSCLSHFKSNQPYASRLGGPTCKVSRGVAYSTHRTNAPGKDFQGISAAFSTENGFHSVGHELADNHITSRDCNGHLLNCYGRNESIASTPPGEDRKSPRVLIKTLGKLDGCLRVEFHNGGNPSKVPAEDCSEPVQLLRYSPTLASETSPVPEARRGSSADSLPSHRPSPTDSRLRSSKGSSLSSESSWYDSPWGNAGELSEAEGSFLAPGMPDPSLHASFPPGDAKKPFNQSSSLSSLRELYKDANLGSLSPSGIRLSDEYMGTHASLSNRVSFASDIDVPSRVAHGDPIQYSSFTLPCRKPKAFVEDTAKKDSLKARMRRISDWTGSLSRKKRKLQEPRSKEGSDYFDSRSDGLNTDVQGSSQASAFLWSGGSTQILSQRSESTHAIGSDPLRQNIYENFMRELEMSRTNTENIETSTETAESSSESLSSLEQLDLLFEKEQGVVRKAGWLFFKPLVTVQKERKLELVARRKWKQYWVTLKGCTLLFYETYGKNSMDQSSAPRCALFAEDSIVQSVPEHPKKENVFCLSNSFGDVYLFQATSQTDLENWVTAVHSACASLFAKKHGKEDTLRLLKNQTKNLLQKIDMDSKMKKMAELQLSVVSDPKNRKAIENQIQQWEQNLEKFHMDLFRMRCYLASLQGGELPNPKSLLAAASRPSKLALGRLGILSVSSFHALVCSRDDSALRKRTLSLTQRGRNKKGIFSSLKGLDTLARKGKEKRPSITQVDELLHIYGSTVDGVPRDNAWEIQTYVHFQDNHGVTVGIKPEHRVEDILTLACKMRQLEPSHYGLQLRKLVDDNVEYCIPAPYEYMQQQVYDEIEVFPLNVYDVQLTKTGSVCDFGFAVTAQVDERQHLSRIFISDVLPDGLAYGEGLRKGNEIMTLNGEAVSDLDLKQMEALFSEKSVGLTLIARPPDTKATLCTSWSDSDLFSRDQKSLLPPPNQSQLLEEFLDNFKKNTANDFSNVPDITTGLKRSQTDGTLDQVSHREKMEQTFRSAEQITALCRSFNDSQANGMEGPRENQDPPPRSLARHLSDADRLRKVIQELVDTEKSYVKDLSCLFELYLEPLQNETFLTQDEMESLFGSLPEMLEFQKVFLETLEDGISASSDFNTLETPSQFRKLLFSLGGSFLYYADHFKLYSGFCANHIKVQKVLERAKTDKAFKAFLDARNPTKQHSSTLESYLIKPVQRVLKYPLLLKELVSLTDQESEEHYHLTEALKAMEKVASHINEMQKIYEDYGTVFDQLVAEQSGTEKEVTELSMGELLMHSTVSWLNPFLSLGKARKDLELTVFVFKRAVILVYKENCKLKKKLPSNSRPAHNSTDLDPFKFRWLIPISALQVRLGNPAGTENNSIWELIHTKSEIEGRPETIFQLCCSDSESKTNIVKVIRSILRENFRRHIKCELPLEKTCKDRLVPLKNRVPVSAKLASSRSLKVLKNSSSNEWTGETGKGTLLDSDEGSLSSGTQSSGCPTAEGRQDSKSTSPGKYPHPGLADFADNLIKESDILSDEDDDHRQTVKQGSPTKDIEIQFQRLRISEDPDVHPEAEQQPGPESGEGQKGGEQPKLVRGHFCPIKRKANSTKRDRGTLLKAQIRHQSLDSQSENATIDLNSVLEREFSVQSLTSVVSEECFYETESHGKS

Q: Which Kd [1] does the source give for `CC[C@H](C)[C@H](NC(=O)[C@H](CC(=O)O)NC(=O)[C@H](CCC(=O)O)NC(=O)[C@H](CCCNC(=N)N)NC(=O)[C@@H](NC(=O)CCCC[C@@H]1SC[C@@H]2NC(=O)N[C@@H]21)[C@@H](C)O)C(=O)N[C@@H](Cc1ccc(O)cc1)C(=O)N[C@H](C(=O)N[C@@H](CC(N)=O)C(=O)N[C@@H](Cc1ccc(O)cc1)C(=O)N1CCC[C@H]1C(=O)N[C@H](C(=O)N[C@@H](Cc1ccccc1)C(=O)N[C@@H](CO)C(=O)N[C@@H](CCCNC(=N)N)C(=O)N[C@@H](CCCNC(=N)N)C(=O)N1CCC[C@H]1C(=O)N[C@@H](CCCCN)C(=O)N[C@H](C(=O)N[C@@H](CCCNC(=N)N)C(=O)N[C@H](C(=O)O)C(C)C)[C@@H](C)O)[C@@H](C)O)C(C)C` [DNAM-1] (Biotin-TREDIYVNYPTFSRRPKTRV-OH; C-terminus assumed) here?
A: The Kd was 2500 nM.

Q: For “A2AC_HUMAN (Modified) (Biotin-DFRPSFKHILFRRARRGFRQ; not fully specified)”, which Classification [2] is on record?
A: Its Classification is 4 (A450 nm 3-4).

Q: For “ELLQFCRTPNPALKNGQYWV (Biotin-ELLQFCRTPNPALKNGQYWV)”, which Classification [3] is on record?
A: The Classification was 3 (A450 nm 2-3).

Q: With “A2AA_HUMAN (modified) (Biotin-HDFRRAFKKILARGDRKRIV; not fully specified)” as the compound, how does the Classification [4] read?
A: The Classification was 1 (A450 nm 0-1).

Q: `CC[C@H](C)[C@H](NC(=O)[C@H](C)NC(=O)[C@H](CC(C)C)NC(=O)[C@H](Cc1c[nH]c2ccccc12)NC(=O)[C@H](Cc1c[nH]cn1)NC(=O)[C@H](CCC(N)=O)NC(=O)[C@H](CC(C)C)NC(=O)[C@H](CCC(N)=O)NC(=O)[C@H](Cc1ccccc1)NC(=O)[C@H](CCC(N)=O)NC(=O)[C@H](CCCNC(=N)N)NC(=O)[C@@H](NC(=O)[C@H](CC(=O)O)NC(=O)[C@H](CCCNC(=N)N)NC(=O)[C@H](CCC(N)=O)NC(=O)[C@H](C)NC(=O)[C@@H](NC(=O)[C@H](CC(C)C)NC(=O)[C@H](Cc1c[nH]cn1)NC(=O)[C@H](Cc1c[nH]cn1)NC(=O)CCCC[C@@H]1SC[C@@H]2NC(=O)N[C@@H]21)C(C)C)[C@@H](C)CC)C(=O)O` [noradrenaline transporter] (Biotin-HHLVAQRDIRQFQLQHWLAI-OH; C-terminus assumed) was tested. Which Kd [5] did it give?
A: The Kd was 400 nM.

Q: And the Kd [6]?
A: The Kd was 600 nM.
